The source of these data is patent publication USRE38330E1, “Preventing and reversing advanced glycosylation endproducts” (Alteon Inc., priority 1995, dated 2003).

Like-named read-outs stand apart in the source and are kept apart here.

For data set [1], the target named is T1, AGE-BSA previously crosslinked to the collagen (Bos taurus, UniProt P02769).
T1 construct: Type V BSA (bovine serum albumin); purchased Calbiochem (BSA Type V); Collaborative Biomedical Products (Biocoat rat tail collagen type I plates)
T1 sequence (P02769 25-607): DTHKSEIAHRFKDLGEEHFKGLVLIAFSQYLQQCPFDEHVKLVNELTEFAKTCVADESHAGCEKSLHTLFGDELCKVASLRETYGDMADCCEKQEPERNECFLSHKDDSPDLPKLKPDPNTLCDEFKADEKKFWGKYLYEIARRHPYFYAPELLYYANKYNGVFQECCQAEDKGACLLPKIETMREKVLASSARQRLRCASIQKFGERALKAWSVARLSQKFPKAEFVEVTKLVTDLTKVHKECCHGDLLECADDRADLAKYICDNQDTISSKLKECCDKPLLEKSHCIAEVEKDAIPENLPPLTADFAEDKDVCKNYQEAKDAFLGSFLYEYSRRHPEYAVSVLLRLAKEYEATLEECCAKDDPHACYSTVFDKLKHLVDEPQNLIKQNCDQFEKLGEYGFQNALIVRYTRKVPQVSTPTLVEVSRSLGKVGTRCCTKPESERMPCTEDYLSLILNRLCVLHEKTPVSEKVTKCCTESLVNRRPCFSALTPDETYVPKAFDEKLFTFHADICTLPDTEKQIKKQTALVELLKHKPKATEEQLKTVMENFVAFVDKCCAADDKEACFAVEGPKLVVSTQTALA
T1 sequence (P02454 152-1207 partner limits assumed): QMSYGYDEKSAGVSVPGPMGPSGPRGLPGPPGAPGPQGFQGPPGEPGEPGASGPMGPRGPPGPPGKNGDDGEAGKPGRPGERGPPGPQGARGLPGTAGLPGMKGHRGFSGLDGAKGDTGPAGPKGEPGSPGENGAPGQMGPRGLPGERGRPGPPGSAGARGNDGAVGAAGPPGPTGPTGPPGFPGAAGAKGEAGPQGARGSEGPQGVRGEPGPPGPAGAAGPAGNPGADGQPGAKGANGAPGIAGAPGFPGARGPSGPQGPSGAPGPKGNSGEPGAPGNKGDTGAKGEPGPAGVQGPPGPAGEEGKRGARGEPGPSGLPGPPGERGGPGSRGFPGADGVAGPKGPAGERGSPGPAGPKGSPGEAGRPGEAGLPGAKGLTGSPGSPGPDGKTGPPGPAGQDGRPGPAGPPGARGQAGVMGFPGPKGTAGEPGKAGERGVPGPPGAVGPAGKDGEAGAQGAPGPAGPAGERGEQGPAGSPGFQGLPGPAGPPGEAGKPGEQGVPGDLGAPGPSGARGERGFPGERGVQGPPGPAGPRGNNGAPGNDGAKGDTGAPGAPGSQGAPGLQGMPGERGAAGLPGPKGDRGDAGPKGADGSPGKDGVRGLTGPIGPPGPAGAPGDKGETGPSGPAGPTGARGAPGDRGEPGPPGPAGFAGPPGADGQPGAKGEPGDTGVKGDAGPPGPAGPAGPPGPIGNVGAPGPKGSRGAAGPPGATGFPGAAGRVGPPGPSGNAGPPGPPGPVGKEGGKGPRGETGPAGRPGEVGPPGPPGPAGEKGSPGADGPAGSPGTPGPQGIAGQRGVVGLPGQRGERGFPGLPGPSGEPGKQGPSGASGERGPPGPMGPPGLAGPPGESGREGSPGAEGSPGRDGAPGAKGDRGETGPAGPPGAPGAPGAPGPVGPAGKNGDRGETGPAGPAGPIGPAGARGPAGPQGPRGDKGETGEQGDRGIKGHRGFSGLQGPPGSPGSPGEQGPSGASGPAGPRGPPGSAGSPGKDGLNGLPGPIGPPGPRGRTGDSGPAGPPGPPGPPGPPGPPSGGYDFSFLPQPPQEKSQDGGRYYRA
T1 sequence (P02466 86-1125 partner limits assumed): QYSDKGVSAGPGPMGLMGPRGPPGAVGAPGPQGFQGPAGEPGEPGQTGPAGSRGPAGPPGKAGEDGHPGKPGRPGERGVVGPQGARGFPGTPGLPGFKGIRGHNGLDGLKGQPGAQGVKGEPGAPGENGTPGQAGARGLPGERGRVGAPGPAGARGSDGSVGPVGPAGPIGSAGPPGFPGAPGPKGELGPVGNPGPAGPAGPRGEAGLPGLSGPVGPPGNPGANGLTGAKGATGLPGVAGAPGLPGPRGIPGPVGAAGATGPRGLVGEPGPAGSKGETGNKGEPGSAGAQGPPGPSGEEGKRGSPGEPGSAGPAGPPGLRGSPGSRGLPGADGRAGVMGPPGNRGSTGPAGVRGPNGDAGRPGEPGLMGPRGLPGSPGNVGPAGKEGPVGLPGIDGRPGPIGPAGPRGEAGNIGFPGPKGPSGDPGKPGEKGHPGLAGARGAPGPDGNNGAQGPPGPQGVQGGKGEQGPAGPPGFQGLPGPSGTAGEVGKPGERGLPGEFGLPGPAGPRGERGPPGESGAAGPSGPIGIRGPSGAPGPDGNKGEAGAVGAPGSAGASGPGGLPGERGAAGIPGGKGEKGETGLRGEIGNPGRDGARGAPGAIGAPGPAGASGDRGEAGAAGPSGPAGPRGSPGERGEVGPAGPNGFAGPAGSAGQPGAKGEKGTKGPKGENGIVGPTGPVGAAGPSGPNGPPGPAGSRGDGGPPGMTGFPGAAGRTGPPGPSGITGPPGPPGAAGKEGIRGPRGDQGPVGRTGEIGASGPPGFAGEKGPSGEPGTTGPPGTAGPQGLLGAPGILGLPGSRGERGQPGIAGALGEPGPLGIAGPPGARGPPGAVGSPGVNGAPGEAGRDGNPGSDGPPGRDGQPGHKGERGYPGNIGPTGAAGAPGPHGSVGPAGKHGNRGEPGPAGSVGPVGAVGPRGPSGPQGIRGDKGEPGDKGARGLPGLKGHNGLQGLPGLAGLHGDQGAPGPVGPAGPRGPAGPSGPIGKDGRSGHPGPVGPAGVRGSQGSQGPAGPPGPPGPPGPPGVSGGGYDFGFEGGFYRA
The experiment in a line: Sandwich enzyme immunoassay for breaking of AGE moieties from AGE-BSA crosslinked to collagen (AGE breaker assay). It is filed as biochemical, bovine; rat. The settings on record: AGE breaking, 16 hours 37° C. On the procedure:
The present invention also involves a novel sandwich enzyme immunoassay used to ascertain the ability of test compounds to “break” or reverse already formed advanced glycosylation endproducts by detecting the breaking of AGE (Advanced glycosylation endproduct) moieties from AGE-crosslinked protein. This assay comprises:
a) incubation of AGE-modified bovine serum albumin (AGE-BSA) on collagen-coated wells of microtiter plates for a period of 2-6 hours at a temperature of 37° C.;
b) washing of the wells with PBS-Tween;
c) application of the test compounds to the washed wells of step b;
d) incubation of the test compounds applied to the washed wells for an additional 12-24 hours at a temperature of about 37° C.; and
e) detection of the AGE-breaking using an antibody raised against AGE-ribonuclease or cross-link breaking with an antibody against BSA.
In order to ascertain the ability of the compounds of the instant invention to “break” or reverse already formed advanced glycosylation endproducts, a novel sandwich enzyme immunoassay was developed which detects breaking of AGE (Advanced glycosylation endproduct) moieties from AGE-crosslinked protein. The assay utilizes collagen-coated 96 will microtiter plates that are obtained commercially. AGE-modified protein (AGE-BSA) is incubated on the collagen-coated wells for four hours, is washed off the wells with PBS-Tween and the test compounds are added. Following an incubation period of 16 hours (37° C.) AGE-breaking is detected using an antibody raised against AGE-ribonuclease or with an antibody against BSA. […] Details of the assay are as follows:
1. AGE-BSA stock solutions were prepared as follows. Sodium phosphate buffer (0.4M) was prepared by dissolving 6 grams of monobasic sodium phosphate in 100 ml of distilled water, 7 grams of dibasic sodium phosphate (0.4M) in 100 ml of distilled water and adjusting the pH of the dibasic solution to 7.4 with the monobasic solution. Sodium azide (0.02 grams) was added per 100 ml volume to inhibit bacterial growth. The BSA solution was prepared as follows: 400 mg of Type V BSA (bovine serum albumin) was added for each ml of sodium phosphate buffer (above). A 400 mM glucose solution was prepared by dissolving […] of dextrose in 100 ml of sodium phosphate buffer (above). The BSA and glucose solutions were mixed 1:1 and incubated at 37° C. for 12 weeks. The pH of the incubation mixture was monitored weekly and adjusted to pH 7.4 if necessary. After 12 weeks, the AGE-BSA solution was dialyzed against PBS for 48 hours with four buffer changes, each at a 1:500 ratio of solution to dialysis buffer. Protein concentration was determined by the micro-Lowry method. The AGE-BSA stock solution was aliquoted and stored at −20° C.
2. Working solutions for crosslinking and breaking studies were prepared as follows. Test compounds were dissolved in PBS and the pH was adjusted to pH 7.4 if necessary. AGE-BSA stock solution was diluted in PBS to measure maximum crosslinking and in the inhibitor solution for testing inhibitory activity of compounds. The concentration of AGE-BSA necessary to achieve the optimum sensitivity was determined by initial titration of each lot of AGE-BSA.
3. Wash buffer (“PBS-Tween”) was prepared as follows. PBS was prepared by dissolving the following salts in one liter of distilled water: NaCl, 8 grams; KCl, 0.2 gram, KH2PO4. […] Tween-20 was added to a final concentration of 0.05% (vol/vol).
4. Substrates for detection of secondary antibody binding were prepared by diluting the HRP substrate buffer 1:10 in distilled water and mixing with ABTS chromogen 1:50 just prior to use.
1. Biocoat plates were blocked With 300 μl of “Superbloc”. Plates were blocked for one hour at room temperature and were washed with PBS-Tween three times with the Dynatech platewasher before addition of test reagents.
2. Each experiment was set up in the following manner.

In data set [2] the target is T2, cross-linking of glycated bovine serum albumin (AGE-BSA) to the rat tail tendon collagen (Bos taurus, UniProt P02769).
T2 construct: glycated bovine serum albumin (AGE-BSA); from tissue; host or cells: collagen from rat tail tendon; BSA from bovine serum, glycated in house
T2 sequence (P02769 25-607): as the sequence (P02769 25-607) above
The experiment in a line: Inhibition of cross-linking of glycated BSA (AGE-BSA) to rat tail tendon collagen coated 96-well plate (ELISA). The class given is biochemical. On the procedure: The cross-linked AGE-BSA to the tail tendon coated plate was then quantitated by the polyclonal antibody raised against AGE-RNase.
The % inhibition of each test compound was calculated as follows.

In data set [3] the test system is aortic wall protein cross-linking in diabetic rats. The settings on record: cited from earlier work.
Data set [4] concerns immunoglobulin trapping in the kidney. Conditions: in vivo; cited from earlier work.
For the next data set, the system named is red blood cells. Conditions: in vivo; cited from earlier work.
The subject of data set [5] is fixed protein (gelatin, i.e., collagen) surface. In words: Surface browning experiment on gelatin/paper disks in glucose-6-phosphate. Conditions: 100 mM glucose-6-phosphate, one week at 50° C., final concentration of 0.04% chlorhexidine (Peridex). On the procedure:
To further study the ability of inhibitors of nonenzymatic browning to prevent the discoloration of protein on a surface, such as that which occurs on the tooth surface, the following surface browning experiment is performed. As a substitute for a pellicle-covered tooth surface, unexposed and developed photographic paper is used to provide a fixed protein (gelatin, i.e., collagen) surface on a paper backing. […] Glucose-6-phosphate is a sugar capable of participating in nonenzymatic browning at a more rapid rate than glucose. In addition to the glucose-6-phosphate, chlorhexidine and/or a compound of Formula I are included. After incubation, the gelatin/paper disks are rinsed with water, observed for brown color, and photographed.

For `Cc1csc[n+]1CC(=O)c1ccccc1.[Br-]` [3-(2-phenyl-2-oxoethyl)-4-methylthiazolium bromide], the melting point is 218 to 220 °C (dec.). For the same compound, the IC50 in data set [1] (detection with anti-AGE-RNase antibody, read-out: IC50 (mM) Anti-AGE) amounted to 0.23 mM. The IC50 in data set [1] (detection with anti-BSA antibody, read-out: IC50 (mM) Anti-BSA) was found to be 0.3 mM. In data set [2], the IC50 was found to be 10300 µM.
On to `N=C(N)NN` [aminoguanidine], for which the “aortic wall protein cross-linking” value in data set [3] is on record as “diminishes aortic wall protein cross-linking”. Also, in data set [4], the “immunoglobulin trapping in the kidney” value was “reduction of immunoglobulin trapping in the kidney”. For the same compound, the “diabetes-induced changes in the deformability of red blood cells” value with red blood cells is recorded as “has been shown to prevent it in vivo”.
Regarding `[H]/N=C(\N/C(=N/[H])NCCCCCCNC(=N)NC(=N)Nc1ccc(Cl)cc1)Nc1ccc(Cl)cc1` [chlorhexidine], the “brown color of gelatin/paper disks” value in data set [5] was “significant browning”.

By IC50 is commonly meant the midpoint of a concentration-inhibition curve. The melting point is the temperature, or range, at which the solid turns liquid.
